# Patent publication US20220023269A1, “Methods Of Treating Diabetes In Severe Insulin-Resistant Diabetic Subjects” (Balticgruppen Bio AB, priority 2018, published 2022)
# How the values were obtained:
# [1] = tested on: T2D patients on Metformin; assay: Phase IIa clinical trial (TELLUS), 28 days; assay type: in vivo, human; conditions: for T2*-grad / Δ-T2*: group-averaged curve fitting
# Description: An exploratory proof-of-concept randomised, parallel-group, double-blinded, placebo-controlled phase IIa 28-day study (TELLUS) of the first-in-class AMPK activator (the test material; 1,000 mg/day) was conducted in 65 T2D patients on Metformin for months, aiming at further exploring safety of test material and the effect of test material on FPG at a single-dose level.
# Main inclusion criteria: Male and female patients, 18-80 years of age, with uncomplicated T2D, on stable T2D treatment with Metformin monotherapy for 3 months. HbA1c of ≥6.5% and 9.0%, and not FPG at day 1, was selected as the main inclusion criterion.
# Main exclusion criteria: History of myocardial infarction (MI), unstable angina, stroke or transient ischemic attack (TIA). Congestive heart failure defined as New York Heart Association (NYHA) class III-IV. Any clinically significant abnormalities in physical examination, ECG or clinical chemistry results, as judged by the Investigator.
# A good-manufacturing practice (GMP) batch of 5 kg test material was manufactured by Anthem BioSciences Pvt.Ltd, Bangalore, Karnataka, India. The suspension is composed of test material 20 mg/ml in 2% methylcellulose in phosphate buffer. A 2% methylcellulose suspension that colour matched the active product was used as placebo. The test material and placebo suspensions were manufactured, packaged and labelled by Recipharm Pharmaceutical Development AB, Solna, Sweden.
# Sixty-five (65) patients were randomised (1:1) to treatment with either the material or placebo. A screening visit (Visit 1) was performed within 3 weeks before randomisation and the start of IMP administration. Patients were randomised on Day 1 (Visit 2) and allocated to 28 days' treatment with either test material or placebo (1:1). Study visits to the clinic were performed 7, 14, 21, 28, 29 and 40 days (Visits 3 to 8) following randomisation and start of treatment. The patients were confined to the research clinic from the evening before Day 1 and Day 28 (Day −1 and Day 27, respectively) to ensure fasting conditions before samples for analyses of FPG were collected. Magnetic Resonance Imaging (MRI) scans after screening but before day 1 and after end of treatment were performed at the University Hospital in Uppsala, Sweden, according to standardised methods. Antaros Medical in Uppsala performed the data analysis. A clinical read of the acquired scans was performed by a radiologist at Antaros Medical. If clinically significant findings were noted by the radiologist, the Investigator was notified of the finding. The Investigator was to evaluate and handle the finding as per standard medical/clinical judgment.
# Any findings were reported as either baseline events or adverse events, if they started, or worsened after administration of the first dose of IMP. The method used for assessing microvascular function in the calf muscle, (a proxy for oxygenation), include a dynamic MRI investigation of T2* determination before during and after reactive hyperemia (Reference 4). Sixty five (65) patients were randomised, 32 patients in the placebo group and 33 in the test material group, and 59 patients completed the study (28 and 31 in the two groups, respectively). HbA1c of 6.5% and 9.0%, and not FPG at day 1, was used as the inclusion criterion since MRI examinations had to be performed after screen but before day 1.
# primary mouse islets = assay: Unfolded protein response gene expression in islets at 22 mM glucose; assay type: cell-based
# Description: For RNA purification calf muscle, iWAT, interscapular BAT, and left lateral liver lobe was crushed in a pestle using liquid nitrogen before turning to respective RNA kit. RNA from liver was prepared using Total RNA isolation Nucleospin II Kit (Macherey-Nagel #740955.50). RNA from adipose tissue was prepared using RNeasy Lipid Tissue Mini kit (Qiagen #74804). RNA from calf muscle tissue was prepared using RNeasy Fibrous Tissue Mini kit (Qiagen #74704). First strand cDNA synthesis was done using SuperScript III (First-Strand Synthesis SuperMix for qRT-PCR, Invitrogen #11752-250) according to the manufacturer's instructions. Total RNA was prepared from isolated islets using RNeasy Micro Kit (Qiagen #74004) and first strand cDNA synthesis was done using Superscript III (Invitrogen #18080-051) according to the manufacturer's instructions. Quantification of mRNA expression levels was performed essentially as previously described (Reference 3). Tyrosine 3-monooxygenase/tryptophan 5-monoxygenase activation protein, zeta polypeptide (YWHAS) was used to normalise expression levels except for islets where TBP was used.
# hIAPPtg mice = assay: Diet switch in hIAPPtg mice: HFD 9 w then test material-HFD (0.8 mg/g) 7 w; assay type: in vivo
# Description: Food intake was measured weekly by giving each cage 200 g pellet. After one week, the amount of pellets consumed were calculated and adjusted according to the number of animals/cage. Body weight was measured weekly. Body composition was assessed using EchoMRI.
# The potent effect of the test material on established diabetes and obesity in hIAPPtg mice on HFD formulated with 2 mg/g test material leaves open the possibility that the beneficial metabolic effects (FIG. 4, F-H) observed in these mice are secondary to the effects on weight and body fat. To address this issue, we therefore performed diet switch experiments on hIAPPtg mice using a lower test material-HFD concentration, where mice were fed HFD for 9 w and then either continued on HFD or switched to test material-HFD (0.8 mg/g) for 7 w.
# conscious beagle dogs = assay: Cardiovascular safety pharmacology study using radiotelemetry in conscious beagle dogs; assay type: in vivo; conditions: single oral doses 60, 180, 540 mg/kg
# Description: Telemetry analyses was performed by CiToxLAB North America (Laval, Quebec, Canada) in adult male beagle dogs, selected from CiToxLAB North America Dog Telemetry Colony, which had previously undergone surgery for telemetry transmitter implantation to monitor the arterial blood pressure, electrocardiogram, body temperature and locomotor activity (Data Science International, Model D70-PCT). All surgical procedures were performed in accordance with relevant Standard Operating Procedures. A telemetry transmitter was placed between the internal abdominal oblique muscle and the aponeurosis of the transverses abdominis of each animal. The pressure catheter was inserted into the femoral artery and the biopotential leads subcutaneously in a Lead II configuration. Test material was gavaged as a suspension at 60, 180, or 540 mg/kg.
# aged, lean B6 mice = assay: Treadmill endurance test; assay type: in vivo; conditions: 20 mg/kg/day gavage, 30 days
# Description: One week prior to the test mice went through a familiarization session of 5 minutes on the treadmill. Running protocol as follows: 15 minutes at 18.8 m/minute, 5 minutes at 24.4 m/minute and 27.1 m/minute until exhaustion. At exhaustion, blood lactate levels were measured using a lactate test meter (Arkray).
# [2] = subjects with long TTP at baseline
structure (smiles),measurement,setting,value
"O=C(Nc1nc(=O)n(Cc2ccc(Cl)cc2)s1)c1ccc(Cl)cc1 [test material, 4-chloro-N-[2-[(4-chlorophenyl)methyl]-3-oxo-1,2,4-thiadiazol-5-yl]benzamide]","mean absolute reduction in diastolic blood pressure, day 28 vs day 1","[1]; 1,000 mg/day",−3.8 mmHg
same,"mean absolute reduction in systolic blood pressure, day 28 vs day 1","[1]; 1,000 mg/day",−5.8 mmHg
same,tolerability,"[1]; 1,000 mg/day, 28 days",well tolerated
same,HOMA-IR at day 28 compared with day 1,"[1]; 1,000 mg/day, Wilcoxon test within group",statistically significant both absolute (P=0.0097) and relative (P=0.017) reduction
same,change in mean heart rate at day 28 compared with baseline,"[1]; 1,000 mg/day, not significant",−1.6 bpm
same,mean absolute reduction in FPG at day 28 compared with day 1,"[1]; 1,000 mg/day, post hoc, FPG >7 to <13.3 mmol/l at day 1",-0.60 mM
same,T2*-grad,[1]; MR1 (screening/baseline),0.528 min⁻¹
same,Δ-T2*,[1]; MR1 (screening/baseline),0.072
same,T2*-grad,[1]; MR2 (day 27-29),0.665 min⁻¹
same,Δ-T2*,[1]; MR2 (day 27-29),0.081
same,plasma t1/2,[1]; T2D patients,long
same,time to plasma steady-state concentration,[1]; T2D patients,≥ 14 days
same,T2*-gradient at day 28 compared with baseline,"[1]; individual curve fitting, Wilcoxon within group",significant relative increase
same,Δ−T2* (hyperemic perfusion) at day 28 compared with baseline,"[1]; individual curve fitting, vs placebo, 2-way ANOVA",statistically significant increase
same,"time-to-peak (TTP), MRI1 vs MRI2",[1]; [2],significant shortening of TTP
same,"Δ−T2*, MRI1 vs MRI2",[1]; [2],increase
same,expression of unfolded protein response genes (ER stress),primary mouse islets,largely prevented an increased expression of unfolded protein response genes
same,body fat,hIAPPtg mice; 0.8 mg/g for 7 w,did not provoke body weight or body fat loss
same,body weight,hIAPPtg mice; 0.8 mg/g for 7 w,did not provoke body weight or body fat loss
same,HOMA-IR,"hIAPPtg mice; 0.8 mg/g, 6 w after the switch",significantly reduced
same,glucose levels,"hIAPPtg mice; 0.8 mg/g, 6 w after the switch",significantly reduced
same,insulin levels,"hIAPPtg mice; 0.8 mg/g, 6 w after the switch",significantly reduced
same,blood pressure (systolic and diastolic),conscious beagle dogs,acutely reduced blood pressure
same,blood lactate levels after endurance test,"aged, lean B6 mice",significantly reducing the increase in blood lactate levels
same,endurance capacity (running distance to exhaustion),"aged, lean B6 mice; vs vehicle",significantly improved endurance capacity
